Columns and labels:
[1] = biological target: T1, human cloned CHRM4 receptor (M4_CHO cells) (Homo sapiens, UniProt P08173); assay: CHRM4 Ca++ Flux Assay (agonist mode, FDSS 7000EX); format: cell-based; conditions: for M4 FDSS PA: Percent Activity; for EC50: geometric mean if tested more than once, read-out: M4 FDSS EC50
T1 construct: expressed in transfected cells; host or cells: CHO-K1
T1 sequence (P08173 1-479): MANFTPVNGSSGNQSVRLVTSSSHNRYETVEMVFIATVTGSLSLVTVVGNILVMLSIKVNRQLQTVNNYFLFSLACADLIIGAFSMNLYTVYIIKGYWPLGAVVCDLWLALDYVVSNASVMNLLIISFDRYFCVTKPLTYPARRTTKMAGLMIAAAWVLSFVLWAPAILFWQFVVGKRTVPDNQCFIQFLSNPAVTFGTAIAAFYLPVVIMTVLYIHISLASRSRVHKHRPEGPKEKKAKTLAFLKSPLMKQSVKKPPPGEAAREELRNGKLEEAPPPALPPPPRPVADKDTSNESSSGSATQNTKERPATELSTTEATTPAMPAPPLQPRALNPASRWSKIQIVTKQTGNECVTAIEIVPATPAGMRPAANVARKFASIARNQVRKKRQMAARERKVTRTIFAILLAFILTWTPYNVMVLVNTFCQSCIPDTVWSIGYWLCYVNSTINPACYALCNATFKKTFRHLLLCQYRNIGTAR
Procedure: (§1) The above examples were characterized by measuring the intracellular mobilization of Ca++ ions caused by signaling events mediated by the receptor. The Intra-cellular Calcium flux levels were captured by the highly sensitive Ca++ indicator, Calcium Assay Kit (BD Biosciences, Catalog Number 640178). The fluorescent activity from all receptors were monitored by the fluorescent imager, FDSS 7000EX (Hamamatsu) over a span of 3 minutes.
CHO-K1 cells stably expressing the human cloned CHRM4 receptor (M4_CHO cells) were grown and maintained in a monolayer culture with F12/HAM (Life Technologies) supplemented with 10% Fetal Bovine Serum, 1× Pen-Strep, and 0.4 mg/mL Geneticin in a humidified atmosphere (5% CO2) at 37° C. The cultures were grown to 80-90% confluency in T150 flasks (Corning) and washed with 1×DPBS then lifted with 0.05% Trypsin (Life Technologies). The cells were harvested in growth media then spun (1K rpm, 3 minutes) and cryopreserved using Recovery Cell Culture Freezing Media (Gibco Technologies). Cells were stored in liquid nitrogen and thawed a day before the assay.
Prior to the day of the assay, stable M4_CHO cells were thawed and plated on 384 well black walled clear bottom TC treated plates (Greiner Cat #781091) at 12K cells/well using F12/HAM Media supplemented with 10% FBS (Life Technologies) and kept overnight in a humidified atmosphere (5% CO2) at 37° C. The next day, cells were loaded with […] Ca^++ dye (BD Biosciences) using Loading Buffer (HBSS +Ca/+Mg, 20 mM HEPES, 2.5 mM Probenecid) and placed back in cell incubator for a minimum of 1 hour. After incubation, the dye was replaced with 45 μL Assay Buffer (HBSS −Ca/−Mg, 20 mM HEPES, 2.5 mM Probenecid) supplemented with 20 μM ATP (Sigma Aldrich) and kept at room temperature in the dark for 60 minutes before running on a cell imager. The FDSS 7000EX (Hamamatsu) was used to capture Ca^++ traces for a span of 3 minutes from cells treated with 11 point dose of compound in triplicate in order to generate dose response curves in agonist mode. All compounds were serially diluted in DMSO then prepared in Assay Buffer for Ca^++ flux studies. The dose response curves were generated from the average of triplicate wells obtained from each data point and used a non-linear regression of four parameter dose response algorithm. The Percent Activity (PA) was measured to EC100 of Carbachol.

[2] = biological target: T2, Cloned human M1 receptor (CHRM1) stably expressed in HEK293 cells (Homo sapiens, UniProt P11229); assay: CHRM1 Ca++ Flux Assay (agonist mode, FDSS 7000EX); format: cell-based; conditions: for M1 FDSS PA: Percent Activity; for EC50: geometric mean if tested more than once
T2 construct: expressed in transfected cells; host or cells: HEK293
T2 sequence (P11229 1-460): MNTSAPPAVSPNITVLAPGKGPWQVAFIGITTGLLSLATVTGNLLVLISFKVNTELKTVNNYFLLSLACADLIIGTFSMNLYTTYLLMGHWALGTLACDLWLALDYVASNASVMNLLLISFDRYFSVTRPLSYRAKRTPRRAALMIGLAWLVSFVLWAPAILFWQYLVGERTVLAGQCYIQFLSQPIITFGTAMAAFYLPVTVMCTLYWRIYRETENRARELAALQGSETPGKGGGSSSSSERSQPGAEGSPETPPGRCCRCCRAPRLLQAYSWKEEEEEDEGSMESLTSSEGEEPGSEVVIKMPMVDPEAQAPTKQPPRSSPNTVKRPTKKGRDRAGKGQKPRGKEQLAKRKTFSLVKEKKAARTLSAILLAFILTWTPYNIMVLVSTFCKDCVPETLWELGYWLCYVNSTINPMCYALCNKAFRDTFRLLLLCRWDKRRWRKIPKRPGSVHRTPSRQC
Procedure: as §1
Cloned human M1 receptor (CHRM1) was stably expressed in HEK293 cells and were grown and maintained in a monolayer culture with DMEM/High Glucose (Life Technologies) supplemented with 10% Fetal Bovine Serum, 1× Pen-Strep, and 0.5 mg/mL Geneticin in a humidified atmosphere (5% CO2) at 37° C. The cultures were grown to 90% confluency in T150 flasks (Corning) and washed with 1×DPBS and lifted with 0.05% Trypsin (Life Technologies). The cells were then spun (1K rpm, 3 minutes) and frozen using Recovery Cell Culture Freezing Media (Gibco Technologies). Cells were stored in liquid nitrogen and thawed a day before the assay.
Prior to the day of the assay, stable HEK293 M1 cells were thawed and plated on 384 well black walled clear bottom TC treated plates (Greiner Cat #781091) at 25K cells/well with DMEM/High Glucose supplemented with 10% FBS (Hyclone) Pen-Strep (Life Technologies) and kept overnight in a humidified atmosphere (5% CO2) at 37° C. The following day, cells were loaded with 20 uL Ca^++ dye (BD Biosciences) using Loading Buffer (HBSS +Ca/+Mg, 20 mM HEPES) and placed back in cell incubator for a minimum of 1 hour. The dye was replaced with 45 μL Assay Buffer (HBSS −Ca/−Mg, 20 mM HEPES) and kept at room temperature prior to running on cell imager. Compounds were prepared in Assay Buffer and 5 uL was added to the cells. The FDSS 7000EX (Hamamatsu) was used to acquire Ca++ traces for 3 minutes from cells treated with 11 point dose in triplicate in order to generate dose response curves in agonist mode. All compounds were serially diluted in DMSO then prepared in Assay Buffer for Ca^++ flux studies. The dose response curves were generated from the average of triplicate wells obtained from each data point and used a non-linear regression of four parameter dose response algorithm. The Percent Activity (PA) was measured to EC100 of Carbachol.

Structure (SMILES) | M4 FDSS PA [1] [%] | EC50 [1] [nM] | M1 FDSS PA [2] [%] | EC50 [2] [nM]
Cc1nnc(COc2ccccc2C2CCN([C@@H]3CCC4(C3)CN(C(=O)C3(F)CC3)C4)CC2)s1 (single isomer, unassigned) [Example 7R, (R)-(1-fluorocyclopropyl)(6-(4-(2-((5-methyl-1,3,4-thiadiazol-2-yl)methoxy)phenyl)piperidin-1-yl)-2-azaspiro[3.4]octan-2-yl)methanone or (S)-(1-fluorocyclopropyl)(6-(4-(2-((5-methyl-1,3,4-thiadiazol-2-yl)methoxy)phenyl)piperidin-1-yl)-2-azaspiro[3.4]octan-2-yl)methanone] | 36 | 62 | 0 | > 25000
Cc1noc(C)c1COc1ccccc1C1CCN([C@@H]2CCC3(C2)CN(C(=O)C2(F)CC2)C3)CC1 (single isomer, unassigned) [Example 7U, (R)-(6-(4-(2-((3,5-dimethylisoxazol-4-yl)methoxy)phenyl)piperidin-1-yl)-2-azaspiro[3.4]octan-2-yl)(1-fluorocyclopropyl)methanone or (S)-(6-(4-(2-((3,5-dimethylisoxazol-4-yl)methoxy)phenyl)piperidin-1-yl)-2-azaspiro[3.4]octan-2-yl)(1-fluorocyclopropyl)methanone] | 1 | > 25000 | 0 | > 25000
Cc1ncc(COc2ccccc2C2CCN([C@@H]3CCC4(C3)CN(C(=O)C3(F)CC3)C4)CC2)o1 (single isomer, unassigned) [Example 7V, (R)-(1-fluorocyclopropyl)(6-(4-(2-((2-methyloxazol-5-yl)methoxy)phenyl)piperidin-1-yl)-2-azaspiro[3.4]octan-2-yl)methanone or (S)-(1-fluorocyclopropyl)(6-(4-(2-((2-methyloxazol-5-yl)methoxy)phenyl)piperidin-1-yl)-2-azaspiro[3.4]octan-2-yl)methanone] | 23 | 353 | 18 | 2300

Other lines, results leading:

M4 FDSS PA [1] [%] | EC50 [1] [nM] | M1 FDSS PA [2] [%] | EC50 [2] [nM] | Structure (SMILES)
42 | 9 | 57 | 37 | O=C(N1CC2(CC[C@@H](N3CCC(c4ccccc4OCC4CC4)CC3)C2)C1)C1(F)CC1 (single isomer, unassigned) [Example 7O, (R)-(6-(4-(2-(cyclopropylmethoxy)phenyl)piperidin-1-yl)-2-azaspiro[3.4]octan-2-yl)(1-fluorocyclopropyl)methanone or (R)-(6-(4-(2-(cyclopropylmethoxy)phenyl)piperidin-1-yl)-2-azaspiro[3.4]octan-2-yl)(1-fluorocyclopropyl)methanone]
49 | 1 | 46 | 29 | O=C1CCCN1CCOc1ccccc1C1CCN([C@@H]2CCC3(C2)CN(C(=O)C2(F)CC2)C3)CC1.O=CO (single isomer, unassigned) [Example 7P, (R)-1-(2-(2-(1-(2-(1-fluorocyclopropane-1-carbonyl)-2-azaspiro[3.4]octan-6-yl)piperidin-4-yl)phenoxy)ethyl)pyrrolidin-2-one formate salt or (S)-1-(2-(2-(1-(2-(1-fluorocyclopropane-1-carbonyl)-2-azaspiro[3.4]octan-6-yl)piperidin-4-yl)phenoxy)ethyl)pyrrolidin-2-one formate salt]
48 | 3 | 37 | 135 | O=C(N1CC2(CC[C@@H](N3CCC(c4ccccc4OCC4CCOCC4)CC3)C2)C1)C1(F)CC1 (single isomer, unassigned) [Example 7Q, (R)-(1-fluorocyclopropyl)(6-(4-(2-((tetrahydro-2H-pyran-4-yl)methoxy)phenyl)piperidin-1-yl)-2-azaspiro[3.4]octan-2-yl)methanone or (S)-(1-fluorocyclopropyl)(6-(4-(2-((tetrahydro-2H-pyran-4-yl)methoxy)phenyl)piperidin-1-yl)-2-azaspiro[3.4]octan-2-yl)methanone]
26 | 2650 | 0 | > 25000 | CCOc1ccccc1C1CCN([C@@H]2CCC3(C2)CN(C(=O)C2(F)CC2)C3)CC1 (single isomer, unassigned) [Example 7S, (R)-(6-(4-(2-ethoxyphenyl)piperidin-1-yl)-2-azaspiro[3.4]octan-2-yl)(1-fluorocyclopropyl)methanone or (S)-(6-(4-(2-ethoxyphenyl)piperidin-1-yl)-2-azaspiro[3.4]octan-2-yl)(1-fluorocyclopropyl)methanone]
5 | 12100 | 32 | 4350 | O=C(N1CC2(CC[C@@H](N3CCC(c4ccccc4OCC4CC4)CC3)C2)C1)C1(F)CC1 (single isomer, unassigned) [Example 7T, (R)-(6-(4-(2-(cyclopropylmethoxy)phenyl)piperidin-1-yl)-2-azaspiro[3.4]octan-2-yl)(1-fluorocyclopropyl)methanone or (R)-(6-(4-(2-(cyclopropylmethoxy)phenyl)piperidin-1-yl)-2-azaspiro[3.4]octan-2-yl)(1-fluorocyclopropyl)methanone]
